Marks after values point to notes of the source that are not given here.

For the first series the following is noted: pH 2.3.
Description: Measurement of logP values was performed according EEC directive 79/831 Annex V.A8 by HPLC (High Performance Liquid Chromatography) on reversed phase columns with the following methods:
^[a] measurement of LC-MS was done at pH 2.7 with 0.1% formic acid in water and with acetonitrile (contains 0.1% formic acid) as eluent with a linear gradient from 10% acetonitrile to 95% acetonitrile. ^[b] Measurement was done at pH 7.5 with 0.005 molar aqueous KH2PO4 buffer and acetonitrile as eluent. ^[c] Measurement was done at pH 2.3 with 0.1% (w/w) phosphoric acid and acetonitrile as eluent.
Take `C=CCOC(=O)C(C#N)=C(Nc1ccccc1SC)c1cccnc1Cl` [Compound 1602]: the “Log P” value was 3.32^[c]; 3.32^[b].
Take `CC(C)C(C)NC(=C(C#N)C(=O)NC1COC1)c1cccnc1Cl` (stereo not shown) [Compound 1455]: the “Log P” value is 2.24.
The same measure, in the same setting: the figure for `CNC(=O)C(C#N)=C(NC(C)C(C)C)c1cccnc1Cl` (stereo not shown) [Compound 989] is 2.41^[c]; 2.41^[b].
As to `CCOC(=O)C(C#N)=C(NC1CCCCC1C)c1cccnc1Cl` (stereo not shown) [Compound 1066], the “Log P” value stood at 3.84.
For `CCOC(=O)C(C#N)=C(NC(C)C(C)C)c1cccnc1-c1cccs1` (stereo not shown) [Compound 1505], the lipophilicity (Log P) is 3.7^[c]; 3.7^[b].
On the same count and under the same terms, the value for `CCOC(=O)C(C#N)=C(NC(C)C(C)C)c1cccnc1-c1ccc(OC)cc1` (stereo not shown) [Compound 1472] was 3.54.

Staying with this series, now noted: pH 2.7.
Consider `CCOC(=O)C(C#N)=C(NC(C)c1ccccn1)c1ccnc(SC)c1Cl` (racemic) [Compound 1393], for which the “Log P” value is 3.35^[a].
The same measure, in the same setting: the figure for `COC(=O)C(C#N)=C(NC(C)(C)c1ccccc1Cl)c1cccnc1Cl` [Compound 393] is 3.15^[a]; for `CCOC(=O)C(C#N)=C(NC(C)C(C)C)c1nsc(Cl)c1Cl` (stereo not shown) [Compound 937] it is 4.39^[a].
As to `CC#CC(C)NC(=C(C#N)C(=O)NCC)c1cccnc1Cl` (stereo not shown) [Compound 1119], the “Log P” value was 2.5^[a].
With `COC(=O)C(C#N)=C(NC(C)CCCC(C)C)c1sc(C)nc1C(F)(F)F` (stereo not shown) [Compound 927], the “Log P” value was 4.78^[a].
Same read-out and setting: the figure for `CCOC(=O)C(C#N)=C(NC(C)COc1ccc(C)cc1)c1cn(C)nc1C(F)F` (stereo not shown) [Compound 735] is 3.71^[a]; for `CCOC(=O)C(C#N)=C(Nc1ccccc1SC)c1sccc1Br` [Compound 366] it is 3.96^[a]; for `CCOC(=O)C(C#N)=C(NC(C)C(=O)NC)c1cc(Cl)sc1Cl` (stereo not shown) [Compound 1632] it is 2.46^[a].
Regarding `CC#CC(C)(C)NC(=C(C#N)C(=O)OCC)c1sccc1Br` [Compound 1041], the “Log P” value is 3.85^[a].
Same read-out and setting: the figure for `COC(=O)C(C#N)=C(NC(C)c1ccc(Cl)c(Cl)c1)c1cccnc1Cl` (stereo not shown) [Compound 387] is 3.58^[a]; for `CCOC(=O)C(C#N)=C(NC(C)c1ccncn1)c1cccnc1Cl` (stereo not shown) [Compound 330] it is 2.01^[a].
The same measure, in the same setting: the figure for `COC(=O)C(C#N)=C(NC(C)c1ccc(OC)c(OC)c1)c1cccnc1Cl` (stereo not shown) [Compound 400] is 2.34^[a]; for `CCOC(=O)C(C#N)=C(NC(C)CF)c1cc(Cl)sc1Cl` (stereo not shown) [Compound 747] it is 3.49^[a]; for `CCOC(=O)C(C#N)=C(NC(C)C(C)C)c1ccnc(C)c1F` (stereo not shown) [Compound 1317] it is 3.31^[a].
Still for that read-out and setting: the value for `CCOC(=O)C(C#N)=C(NC(C)C(C)C)c1ccnc(SC)c1Cl` (stereo not shown) [Compound 1401] was 4.44^[a]; that for `CCOC(=O)C(C#N)=C(NC(C)c1cc(Cl)cc(C)n1)c1cccnc1Cl` (stereo not shown) [Compound 1446] was 3.4^[a]; that for `CCOC(=O)C(C#N)=C(NCC1(C)COC1)c1cn(C)nc1C(F)F` [Compound 1423] was 2.04^[a].
As for `CCOC(=O)C(C#N)=C(Nc1ccc(C(C)C)cc1)c1sccc1Br` [Compound 490], the “Log P” value was 4.73^[a].
Consider `CCOC(=O)C(C#N)=C(NC(C)c1nccs1)c1ccnc(C)c1F` (stereo not shown) [Compound 1319], for which the “Log P” value is 2.48^[a].
On to `CCOC(=O)C(C#N)=C(NC(C)CC(C)C)c1ccsc1Br` (racemic) [Compound 785], for which the “Log P” value was 4.41^[a].
The same measure, in the same setting: the value for `CCOC(=O)C(C#N)=C(NC(C)c1nccs1)c1cn(C)nc1C(F)F` (racemic) [Compound 34] was 2.4^[a].
As to `CCOC(=O)C(C#N)=C(NC(C(N)=O)C(C)C)c1cccnc1Cl` (stereo not shown) [Compound 732], the lipophilicity (Log P) was 2.07^[a].
The same measure, in the same setting: the value for `C=CCCCC(C=C)NC(=C(C#N)C(=O)OCC)c1c(C)nn(C)c1Cl` (racemic) [Compound 1013] was 4.04^[a].
Still for that read-out and setting: the value for `CCOC(=O)C(C#N)=C(NC(C)c1nccs1)c1ncccc1Br` (racemic) [Compound 224] was 2.53^[a]; that for `CCC(C)OC(=O)C1(NC(=C(C#N)C(=O)OC)c2cccnc2Cl)CC1` (stereo not shown) [Compound 621] was 2.23^[a].
The same measure, in the same setting: the value for `CCOC(=O)C(C#N)=C(NC(C)c1nc(C)c(C)s1)c1sccc1Br` (stereo not shown) [Compound 92] was 3.8^[a]; that for `CCOC(=O)C(C#N)=C(NC(C#N)c1cccc(Cl)c1Cl)c1cn(C)nc1C(F)F` (stereo not shown) [Compound 1219] was 3.44^[a]; that for `CC#CC(C)NC(=C(C#N)C(=O)OC)c1cccnc1Cl` (stereo not shown) [Compound 1051] was 2.5^[a].
`CCOC(=O)C(C#N)=C(NC(C)C(N)=O)c1ccnc(Cl)c1Cl` (stereo not shown) [Compound 729]: the “Log P” value was 1.88^[a].
The same measure, in the same setting: the value for `C=CCNC(=O)C(C#N)=C(NC(C)c1ccccn1)c1cn(C)nc1C(F)F` (racemic) [Compound 1291] was 2.02^[a]; that for `CC(C)C(C)NC(=C(C#N)C(=O)N1CCSC1)c1cccnc1Cl` (stereo not shown) [Compound 1509] was 3.19^[a]; that for `CCOC(=O)C(C#N)=C(NC(C)CC)c1ncc(Cl)cc1Cl` (racemic) [Compound 839] was 3.78^[a].
The same measure, in the same setting: the figure for `CCOC(=O)C(C#N)=C(NC(C)c1nccs1)c1ccncc1Br` (mixture of isomers) [Compound 297] is 2.4^[a].
Still for that read-out and setting: the value for `CCOC(=O)C(C#N)=C(NC1CCC1)c1nc(Cl)ccc1Cl` [Compound 794] was 3.58^[a]; that for `CCOC(=O)C(C#N)=C(NC(C)c1cc(Cl)cc(Cl)n1)c1cccnc1Cl` (stereo not shown) [Compound 1639] was 3.7^[a]; that for `CCOC(=O)C(C#N)=C(Nc1cccc2cn(C)nc12)c1cccnc1Cl` [Compound 1537] was 2.68^[a].
Turning to `CCNC(=O)C(C#N)=C(NC(C)C1CC1)c1cnn(C)c1C(F)F` (stereo not shown) [Compound 1309], the “Log P” value was 2.64^[a].
For `CCOC(=O)C(C#N)=C(Nc1ccccc1SC)c1cn(C)nc1C(F)(F)F` [Compound 431], the “Log P” value was 3.48^[a].
Same read-out and setting: the value for `CCOC(=O)C(C#N)=C(NC(C)(C)C#Cc1ccc(C#N)cc1)c1sccc1C(F)(F)F` [Compound 1091] was 4.24^[a]; that for `COC(=O)C(C#N)=C(NC(C)c1ccc(Cl)cc1)c1cn(C)nc1C(F)F` (stereo not shown) [Compound 356] was 3.31^[a].
On the same count and under the same terms, the value for `CCOC(=O)C(C#N)=C(NC(C)COc1cccc(OC)c1)c1cccnc1Cl` (stereo not shown) [Compound 1173] was 3.58^[a].

Staying with this series, now noted: pH 7.5.
`CCOC(=O)C(C#N)=C(NC(C)C=NO)c1cccnc1Cl` (stereo not shown) [Compound 1443]: the “Log P” value was determined as 1.78.
On the same count and under the same terms, the figure for `C=CCOC(=O)C(C#N)=C(Nc1ccccc1SC)c1cccnc1Cl` [Compound 1602] is 3.32^[c]; 3.32^[b]; for `COC(=O)C(C#N)=C(NC(C)C(C)C)c1cccnc1Cl` (stereo not shown) [Compound 932] it is 2.85.
Still for that read-out and setting: the value for `CCOC(=O)C(C#N)=C(NC(C)CCCC(C)C)c1cccnc1Cl` (mixture of isomers) [Compound 1582] was 4.47.
Still for that read-out and setting: the value for `CCSCC(C)NC(=C(C#N)C(=O)OC)c1cccnc1Cl` (stereo not shown) [Compound 577] was 2.72; that for `CC(C)C(C)NC(=C(C#N)C(=O)NC1COC1)c1cccnc1Cl` (stereo not shown) [Compound 1455] was 2.26.
With `CNC(=O)C(C#N)=C(NC(C)C(C)C)c1cccnc1Cl` (stereo not shown) [Compound 989], the “Log P” value is 2.41^[c]; 2.41^[b].
`CCOC(=O)C(C#N)=C(NC1CCCCC1C)c1cccnc1Cl` (stereo not shown) [Compound 1066]: the “Log P” value is 3.7.
Same read-out and setting: the value for `CCOC(=O)C(C#N)=C(NC(C)Cc1ncc(C(F)(F)F)cc1Cl)c1cccnc1Cl` (racemic) [Compound 49] was 3.76.
For `CCOC(=O)C(C#N)=C(NC(C)C(C)C)c1cccnc1-c1cccs1` (stereo not shown) [Compound 1505], the “Log P” value was 3.7^[c]; 3.7^[b].
Regarding `CCOC(=O)C(C#N)=C(NC(C)C(C)C)c1cccnc1-c1ccc(OC)cc1` (stereo not shown) [Compound 1472], the “Log P” value was found to be 3.59.

The term Log P denotes the decadic logarithm of the partition coefficient of the neutral form, usually between octanol and water. Read a low Log P as a more hydrophilic compound.
